Square brackets hold non-standard residues; d marks the D form. Peptide text beside a SMILES is read from it. Phe(4-NH2) = Nc1ccc(C[C@H](N)C(=O)O)cc1; Gly(cPent) = N[C@H](C(=O)O)C1CCCC1; tBuAla = CC(C)(C)C[C@H](N)C(=O)O; Cha = N[C@@H](CC1CCCCC1)C(=O)O; Nva = CCC[C@H](N)C(=O)O
What follows are compounds tested against T1, Telomeric repeat-binding factor 2 (Homo sapiens, UniProt Q15554) (assay: Displacement of 5-((2R,6S,9S,12S,15S,18S,21S,24S)-3-((S)-2-((S)-1-amino-3-methyl-1-oxobutan-2-ylcarbamoyl)pyrrolidine-1-carbonyl)-15-(4-aminobutyl)-2-hydroxy-12-(4-hydroxybenzyl)-6,9,18,24-tetraisobutyl-21-methyl-5,8,11,14,17,20,23,26,29-nonaoxo-4,7,10,13,16,19,22,25,28-nonaazatetratriacontan-34-ylcarbamoyl)-2-(6-hydroxy-3-oxo-3H-xanthen-9-yl)benzoic acid from TRF2 TRFH domain (unknown origin) after 30 mins by fluorescence polarization assay).
T1 sequence (Q15554 whole entry): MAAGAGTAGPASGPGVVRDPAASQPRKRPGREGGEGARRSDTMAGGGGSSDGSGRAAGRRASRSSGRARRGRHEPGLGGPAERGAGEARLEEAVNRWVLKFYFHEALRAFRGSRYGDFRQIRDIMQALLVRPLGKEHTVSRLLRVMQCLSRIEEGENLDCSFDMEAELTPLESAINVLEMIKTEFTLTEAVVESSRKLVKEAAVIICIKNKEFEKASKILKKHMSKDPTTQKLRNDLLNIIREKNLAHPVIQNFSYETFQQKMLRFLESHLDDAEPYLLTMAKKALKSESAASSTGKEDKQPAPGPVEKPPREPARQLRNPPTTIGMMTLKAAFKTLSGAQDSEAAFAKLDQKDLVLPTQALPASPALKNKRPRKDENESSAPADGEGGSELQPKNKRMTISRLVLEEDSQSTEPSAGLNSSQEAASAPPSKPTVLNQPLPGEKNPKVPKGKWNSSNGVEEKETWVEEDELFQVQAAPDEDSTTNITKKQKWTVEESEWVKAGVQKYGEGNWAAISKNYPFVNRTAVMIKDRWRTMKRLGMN

| Compound | Ki [µM] |
| --- | --- |
| CC(=O)N[C@@H](CC(C)C)C(=O)N[C@@H](C)C(=O)N[C@@H](CC(C)C)C(=O)N[C@@H](CCCCN)C(=O)N[C@@H](Cc1ccc(O)cc1)C(=O)N[C@@H](CC(C)C)C(=O)N[C@H](C(=O)N[C@H](C(=O)N1CCC[C@H]1C(=O)N[C@H](C(N)=O)C(C)C)[C@@H](C)O)C(C)C (Ac-LALKYLVTPV-NH2) | 61.2 |
| CC(=O)N[C@@H](CC(C)C)C(=O)N[C@@H](C)C(=O)N[C@@H](CC(C)C)C(=O)N[C@@H](CCCCN)C(=O)N[C@@H](Cc1ccc(N)cc1)C(=O)N[C@@H](CC(C)C)C(=O)N[C@@H](CC(C)C)C(=O)N[C@H](C(=O)N1CCC[C@H]1C(=O)N[C@H](C(N)=O)C(C)C)[C@@H](C)O (Ac-LALK[Phe(4-NH2)]LLTPV-NH2) | 0.72 |
| CC(=O)N[C@@H](CC(C)C)C(=O)N[C@@H](C)C(=O)N[C@@H](CC(C)C)C(=O)N[C@@H](CCCCN)C(=O)N[C@@H](Cc1ccc(O)cc1)C(=O)N[C@@H](CC(C)C)C(=O)N[C@@H](CC(C)C)C(=O)N[C@H](C(=O)N1CCC[C@H]1C(=O)O)[C@@H](C)O (Ac-LALKYLLTP-OH) | 1.89 |
| CC(=O)N[C@@H](CC(C)C)C(=O)N[C@@H](C)C(=O)N[C@@H](CC(C)C)C(=O)N[C@@H](CCCCN)C(=O)N[C@@H](Cc1ccc(O)cc1)C(=O)N[C@@H](CC(C)C)C(=O)N[C@@H](CC(C)(C)C)C(=O)N[C@H](C(=O)N1CCC[C@H]1C(=O)N[C@H](C(N)=O)C(C)C)[C@@H](C)O (Ac-LALKYL[tBuAla]TPV-NH2) | 6.1 |
| CC(C)C[C@@H]1NC(=O)[C@@H](NC(=O)[C@@H](N)Cc2ccccc2)CCCCCC[C@@H](C(=O)N(C)C)NC(=O)[C@@H]2CCCN2C(=O)[C@H](C)NC1=O | 130 |
| CC[C@H](C)[C@H](NC(=O)[C@H](CC(C)C)NC(=O)[C@H](Cc1ccc(O)cc1)NC(=O)[C@H](CCCCN)NC(=O)[C@H](CC(C)C)NC(=O)[C@H](C)NC(=O)[C@H](CC(C)C)NC(C)=O)C(=O)N[C@H](C(=O)N1CCC[C@H]1C(=O)N[C@H](C(N)=O)C(C)C)[C@@H](C)O (Ac-LALKYLITPV-NH2) | 11.3 |
| CC(=O)N[C@@H](CC(C)C)C(=O)N[C@@H](C)C(=O)N[C@@H](CC(C)C)C(=O)N[C@@H](C)C(=O)N[C@@H](Cc1ccc(O)cc1)C(=O)N[C@@H](CC(C)C)C(=O)N[C@@H](CC(C)C)C(=O)N[C@H](C(=O)N1CCC[C@H]1C(=O)N[C@H](C(N)=O)C(C)C)[C@@H](C)O (Ac-LALAYLLTPV-NH2) | 3.2 |
| CC(C)C[C@H](NC(=O)[C@H](Cc1ccc(O)cc1)NC(=O)[C@@H](N)CCCCN)C(=O)N[C@@H](CC(C)C)C(=O)N[C@H](C(=O)N1CCC[C@H]1C(=O)N[C@H](C(=O)O)C(C)C)[C@@H](C)O (H-KYLLTPV-OH) | 123 |
| CC(=O)N[C@@H](CC(C)C)C(=O)N[C@@H](C)C(=O)N[C@@H](CC(C)C)C(=O)N[C@@H](CCCCN)C(=O)N[C@@H](Cc1ccc(O)cc1)C(=O)N[C@@H](CC(C)C)C(=O)N[C@@H](CC(C)C)C(=O)N[C@H](C(=O)O)[C@@H](C)O (Ac-LALKYLLT-OH) | 26.3 |
| CC(=O)N[C@@H](CC(C)C)C(=O)N[C@@H](C)C(=O)N[C@@H](CC(C)C)C(=O)N[C@@H](CCCCN)C(=O)N[C@@H](Cc1ccc(O)cc1)C(=O)N[C@@H](CC(C)C)C(=O)N[C@@H](Cc1ccccc1)C(=O)N[C@H](C(=O)N1CCC[C@H]1C(=O)N[C@H](C(N)=O)C(C)C)[C@@H](C)O (Ac-LALKYLFTPV-NH2) | 8.5 |
| CC(C)C[C@@H]1NC(=O)[C@@H](NC(=O)[C@@H](N)Cc2ccccc2)CCCCCCC[C@@H](C(=O)N(C)C)NC(=O)[C@@H]2CCCN2C(=O)[C@H](C)NC1=O | 41.4 |
| CC(=O)N[C@@H](CC(C)C)C(=O)N[C@@H](C)C(=O)N[C@@H](CC(C)C)C(=O)N[C@@H](CCCCN)C(=O)N[C@@H](Cc1ccc(O)cc1)C(=O)N[C@@H](CC(C)C)C(=O)N[C@@H](CC(C)C)C(=O)O (Ac-LALKYLL-OH) | 98 |
| CC(C)C[C@H](NC(=O)[C@@H](N)CC(C)C)C(=O)N[C@H](C(=O)N1CCC[C@H]1C(=O)N[C@H](C(N)=O)C(C)C)[C@@H](C)O (H-LLTPV-NH2) | > 500 |
| CC(C)C[C@@H]1NC(=O)[C@@H](NC(=O)[C@@H](N)Cc2ccc(O)cc2)CCCCCCC[C@@H](C(=O)N(C)C)NC(=O)[C@@H]2CCCN2C(=O)[C@H](C)NC1=O | 58.2 |
| CC(C)C[C@H](NC(=O)[C@H](C)NC(=O)[C@@H](N)CC(C)C)C(=O)N[C@@H](CCCCN)C(=O)N[C@@H](Cc1ccc(O)cc1)C(=O)N[C@@H](CC(C)C)C(=O)N[C@@H](CC(C)C)C(=O)N[C@H](C(=O)N1CCC[C@H]1C(=O)N[C@H](C(=O)O)C(C)C)[C@@H](C)O (H-LALKYLLTPV-OH) | 2.2 |
| CC(=O)N[C@@H](CC(C)C)C(=O)N[C@@H](C)C(=O)N[C@@H](CC(C)C)C(=O)N[C@@H](CCCCN)C(=O)N[C@@H](Cc1ccc(O)cc1)C(=O)N[C@@H](CC(C)C)C(=O)N[C@H](C(=O)N[C@H](C(=O)N1CCC[C@H]1C(=O)N[C@H](C(N)=O)C(C)C)[C@@H](C)O)C1CCCC1 (Ac-LALKYL[Gly(cPent)]TPV-NH2) | 0.51 |
| CC(C)C[C@@H]1NC(=O)[C@@H](NC(=O)[C@H](Cc2ccccc2)NC(=O)C[C@@H](N)Cc2ccccc2)CCCCCCC[C@@H](C(=O)N(C)C)NC(=O)[C@@H]2CCCN2C(=O)[C@H](C)NC1=O | 14.3 |
| CC(=O)N[C@@H](CC(C)C)C(=O)N[C@@H](C)C(=O)N[C@@H](CC(C)C)C(=O)N[C@@H](CCCCN)C(=O)N[C@@H](Cc1ccc(O)cc1)C(=O)N[C@@H](CC(C)C)C(=O)N[C@@H](CC(C)C)C(=O)N[C@H](C(=O)N1CCC[C@H]1C(=O)N[C@H](C(=O)O)C(C)C)[C@@H](C)O (Ac-LALKYLLTPV-OH) | 0.34 |
| CC(=O)N[C@@H](CC(C)C)C(=O)N[C@@H](C)C(=O)N[C@@H](CC(C)C)C(=O)N[C@@H](CCCCN)C(=O)N[C@@H](Cc1ccc(O)cc1)C(=O)N[C@@H](CC(C)C)C(=O)N[C@@H](CC1CCCCC1)C(=O)N[C@H](C(=O)N1CCC[C@H]1C(=O)N[C@H](C(N)=O)C(C)C)[C@@H](C)O (Ac-LALKYL[Cha]TPV-NH2) | 1.4 |
| CC(C)C[C@H](NC(=O)[C@H](C)N)C(=O)N[C@@H](CCCCN)C(=O)N[C@@H](Cc1ccc(O)cc1)C(=O)N[C@@H](CC(C)C)C(=O)N[C@@H](CC(C)C)C(=O)N[C@H](C(=O)N1CCC[C@H]1C(=O)N[C@H](C(=O)O)C(C)C)[C@@H](C)O (H-ALKYLLTPV-OH) | 22.8 |
| CCC[C@H](NC(=O)[C@H](CC(C)C)NC(=O)[C@H](Cc1ccc(O)cc1)NC(=O)[C@H](CCCCN)NC(=O)[C@H](CC(C)C)NC(=O)[C@H](C)NC(=O)[C@H](CC(C)C)NC(C)=O)C(=O)N[C@H](C(=O)N1CCC[C@H]1C(=O)N[C@H](C(N)=O)C(C)C)[C@@H](C)O (Ac-LALKYL[Nva]TPV-NH2) | 4.7 |
| CC(C)C[C@H](NC(=O)[C@H](Cc1ccc(O)cc1)NC(=O)[C@H](CCCCN)NC(=O)[C@@H](N)CC(C)C)C(=O)N[C@@H](CC(C)C)C(=O)N[C@H](C(=O)N1CCC[C@H]1C(=O)N[C@H](C(=O)O)C(C)C)[C@@H](C)O (H-LKYLLTPV-OH) | 26.8 |
| CC(=O)N[C@@H](CC(C)C)C(=O)N[C@@H](C)C(=O)N[C@@H](CC(C)C)C(=O)N[C@@H](CCCCN)C(=O)N[C@@H](Cc1ccc(O)cc1)C(=O)N[C@H]1CCCCCCC[C@@H](C(=O)N(C)C)NC(=O)[C@@H]2CCCN2C(=O)[C@H](C)NC(=O)[C@H](CC(C)C)NC1=O | 0.09 |
| CC(C)C[C@@H]1NC(=O)[C@@H](NC(=O)[C@@H](N)Cc2ccccc2)CCCCCCCC[C@@H](C(=O)N(C)C)NC(=O)[C@@H]2CCCN2C(=O)[C@H](C)NC1=O | 43.2 |
| CC(C)C[C@@H]1NC(=O)[C@@H](NC(=O)[C@H](Cc2ccc(O)cc2)NC(=O)[C@@H](N)CCCCN)CCCCCCC[C@@H](C(=O)N(C)C)NC(=O)[C@@H]2CCCN2C(=O)[C@H](C)NC1=O | 18.4 |
| CC(=O)N[C@@H](CC(C)C)C(=O)N[C@@H](C)C(=O)N[C@@H](CC(C)C)C(=O)N[C@@H](CCCCN)C(=O)N[C@@H](Cc1ccc(O)cc1)C(=O)N[C@@H](CC(C)C)C(=O)N[C@@H](CC(C)C)C(=O)N[C@@H](C)C(=O)N1CCC[C@H]1C(=O)N[C@H](C(N)=O)C(C)C (Ac-LALKYLLAPV-NH2) | 0.24 |
| CC(=O)N[C@@H](CC(C)C)C(=O)N[C@@H](C)C(=O)N[C@@H](CC(C)C)C(=O)N[C@@H](CCCCN)C(=O)N[C@@H](Cc1ccc(O)cc1)C(=O)N[C@@H](CC(C)C)C(=O)O (Ac-LALKYL-OH) | 461 |
| CC(C)C[C@@H]1NC(=O)[C@@H](NC(=O)[C@H](Cc2ccccc2)NC(=O)CCc2ccccc2)CCCCCCC[C@@H](C(=O)N(C)C)NC(=O)[C@@H]2CCCN2C(=O)[C@H](C)NC1=O | 11.2 |
| CC(=O)N[C@@H](CC(C)C)C(=O)N[C@@H](C)C(=O)N[C@@H](CC(C)C)C(=O)N[C@@H](CCCCN)C(=O)N[C@@H](Cc1ccccc1)C(=O)N[C@@H](CC(C)C)C(=O)N[C@@H](CC(C)C)C(=O)N[C@H](C(=O)N1CCC[C@H]1C(=O)N[C@H](C(N)=O)C(C)C)[C@@H](C)O (Ac-LALKFLLTPV-NH2) | 3.4 |
| CC(=O)N[C@@H](CC(C)C)C(=O)N[C@@H](C)C(=O)N[C@@H](CC(C)C)C(=O)N[C@@H](CCCCN)C(=O)N[C@@H](Cc1ccc(O)cc1)C(=O)N[C@@H](CC(C)C)C(=O)N[C@@H](C)C(=O)N[C@H](C(=O)N1CCC[C@H]1C(=O)N[C@H](C(N)=O)C(C)C)[C@@H](C)O (Ac-LALKYLATPV-NH2) | > 100 |
